From patent publication US12320800B2, “High-throughput automation of organoids for identifying therapeutic strategies” (UNIVERSITY OF WASHINGTON, priority 2018, dated 2025)
Entries after “also recorded” stand apart in the source; their conditions may differ.

Key:
[1] = tested on: myosin; settings: cited from earlier work; for effect: Table 5 listing
[2] = tested on: PKD1−/− and PKD2−/− mutant organoids; experiment: Prophylactic effect of myosin activators on cyst formation in PKD organoids in suspension; format: cell-based, human
Excerpt: (§1) Cyst formation. In adherent cultures (untreated), ‘cysts’ were identified as large, balloon-like, translucent structures that swayed in response to agitation. Flat rings and dilated tubules were not counted as cysts and occasionally appeared even in non-PKD controls. […] Wells were imaged using a Nikon TiE inverted wide-field microscope and cysts were quantified using ImageJ cell counter. To generate large cysts in suspension, adherent organoids were microdissected with a 23-gauge syringe needle from 24-well plates on an inverted phase-contrast microscope, and carefully transferred using a transfer pipette into a low-adhesion 6-well plate (Corning) containing 2 ml RB. The organoids were isolated on the twenty-first day of differentiation, before cysts formed. RB media was changed by gravity every three days, and cystogenesis was assessed at two weeks after replating.
EMD was efficient at rescuing cyst formation at the lowest dose tested (3 μM) and worked in both PKD1^−/− and PKD2^−/− mutant organoids.

[3] = tested on: cell stiffness; settings: cited from earlier work
[4] = tested on: endothelial cells (ECs) in kidney organoid cultures
Experimental: Kidney differentiation in microwell plates. hPSCs were dissociated with Accutase (Stem Cell Technologies) and plated onto microwell plates pre-coated with GelTrex in mTeSR1 supplemented with 10 mMRho-kinase inhibitor Y27632 (StemGent). The media was replaced with mTeSR1+1.5% GelTrex at 16 hours, 12 mMCHIR99021 in Advanced RPMI+Glutamax (Life Technologies) at 60 hours, and RB (Advanced RPMI+Glutamax+B27 Supplement, from Life Technologies) at 96 hours. […] RB was changed two days later and every three days thereafter. For experiments involving modulation of endothelial cell media was supplemented with VEGF165 (Peprotech, 12.5 to 200 ng/ml). Alternatively (Protocol B, FIG. 31A), the protocol described by Takasato et al. was adapted for adherent culture: undifferentiated hPSCs were plated overnight and treated the following morning with 8 mM CHIR99021 in APEL media (StemCell Technologies) for 48-72 hr, 30 ng/ml FGF9 (Peprotech)+1 mg/ml heparin (StemCellTechnologies) in APEL for 96 hr, and cultured thereafter in APEL, replaced every three days. Alternatively, to generate endothelial cells without kidney organoids, 100,000 hPSCs/cm2 were plated in mTeSR1+10 mM Y27632+1 mM CHIR99021, replaced with RPMI+B27 minus insulin+1.5% Geltrex+50 ng/mL Activin A (R&D) at 24 h, RPMI+B27 minus insulin+40 ng/mL BMP4 (Peprotech)+1 mL CHIR99021 at 61 h, and StemPro 34 (Thermo Fisher Scientific)+2 mM Glutamax+50 mg/mL ascorbic acid (Sigma)+10 ng/mL BMP4+5 ng/mL bFGF (Peprotech)+300 ng/mL VEGF165 at 85 h for a 72-hour incubation.
Immunohistochemistry. For confocal microscopy, kidney organoids were differentiated on 96-well No, 1.5 coverslip glass-bottom plates (Mat-Tek). To fix, an equal volume of 8% paraformaldehyde (Electron Microscopy Sciences) was added to the culture media (4% final concentration) for 15 minutes at room temperature. […] Fluorescence images were captured using an inverted Nikon epifluorescence Eclipse Ti or A1R confocal microscope. […]

[5] = tested on: PKD organoids or isogenic controls; experiment: Cyst formation in adherent kidney organoids treated with forskolin or 8-Br-cAMP; format: cell-based, human
Excerpt: as §1

[6] = tested on: Polycystic Kidney Disease (PKD) patients; settings: cited from earlier work
[7] = tested on: control organoids of identical genetic background that lacked PKD mutations; experiment: Blebbistatin cystogenesis in suspension culture, control organoids; format: cell-based, human; settings: 3 days after treatment
Experimental: Cyst generation. […] Forskolin (Sigma) was added to microwell plates during automated liquid handling on the 21st day after differentiation. Large swellings rapidly developed and grew to full size over 72 hours. Cysts were identified by comparing images with captured with high-content imaging prior to forskolin treatment, and after 72 hours. Screening of PKD cystogenesis was performed in duplicate in 96-well plates to provide sufficient space and numbers of organoids per well. Factors were plated at four different concentrations for seven days, and the organoids were scanned visually on a phase-contrast microscope for increased or decreased cyst formation. […] Cyst diameters were measured using NIS Elements imaging software (Nikon). […]

[8] = tested on: PKD organoids (mutations in polycystin-1); experiment: Small-scale screen of PKD cystogenesis modifiers in 96-well organoid plates; format: cell-based, human; set-up: dose or concentration left out as unconfirmed; settings: 7 days, blebbistatin at highest concentration
Experimental: Cyst generation. PKD1^−/− and PKD2^−/− hPSCs or isogenic controls were differentiated in microwell plates in adherent cultures. Forskolin (Sigma) was added to microwell plates during automated liquid handling on the 21st day after differentiation. Large swellings rapidly developed and grew to full size over 72 hours. Cysts were identified by comparing images with captured with high-content imaging prior to forskolin treatment, and after 72 hours. Screening of PKD cystogenesis was performed in duplicate in 96-well plates to provide sufficient space and numbers of organoids per well. Factors were plated at four different concentrations for seven days, and the organoids were scanned visually on a phase-contrast microscope for increased or decreased cyst formation. […] Cyst diameters were measured using NIS Elements imaging software (Nikon). […]

[9] = tested on: PKD organoids; experiment: Blebbistatin cystogenesis in suspension culture, PKD organoids; format: cell-based, human; set-up: time after which PKD organoids formed cysts: dose or concentration left out as unconfirmed
Experimental: Cyst generation. […] Forskolin (Sigma) was added to microwell plates during automated liquid handling on the 21st day after differentiation. Large swellings rapidly developed and grew to full size over 72 hours. Cysts were identified by comparing images with captured with high-content imaging prior to forskolin treatment, and after 72 hours. Screening of PKD cystogenesis was performed in duplicate in 96-well plates to provide sufficient space and numbers of organoids per well. Factors were plated at four different concentrations for seven days, and the organoids were scanned visually on a phase-contrast microscope for increased or decreased cyst formation. […] To test cystogenesis in suspension, adherent organoids were microdissected with a 23-gauge syringe needle from 24-well plates on an inverted phase-contrast microscope, and transferred into a low-adhesion 6-well plate (Corning) containing 2 mL RB or 2 mL RB with […] blebbistatin. Organoids were imaged daily on a Nikon Ti Inverted Widefield microscope for a period of 7 days. Cyst diameters were measured using NIS Elements imaging software (Nikon). Contiguous microscopic fields were collected using an automated stage and stitched together using NIS Elements software to generate large images of wells or plates.

[10] = scRNA-seq, in the presence of VEGF

Q: For `CC(=O)c1ccc(O)cc1` [4-HAP, 4-hydroxyacetophenone], which effect [1] is on record?
A: Its effect is “↑ myosin IIB, IIC”.

Q: And the “myosin II paralogs affected” value [1]?
A: The value was “specifically affect non-muscle myosins IIB and IIC, but not IIA”.

Q: What about the “effect on PKD organoid cysts” value [2] of the same compound?
A: The value was “less activity than EMD”.

Q: What about the “effect on cyst growth in PKD1−/− organoids” value ([2]; 300 μM (FIG. 22)) of the same compound?
A: Its value is “Positive effects”.

Q: What about the “concentration range showing effects on cell stiffness” value [3] of the same compound?
A: The value was 5 to 50 µM.

Q: Which effect [1] does the source give for `CNc1ccc2oc(C[C@H]3O[C@@]4(CC[C@H]3C)O[C@H]([C@H](C)C(=O)c3ccc[nH]3)[C@H](C)C[C@H]4C)nc2c1C(=O)O` [calcium ionophore] here?
A: Its effect is “↑ calmodulin”.

Q: For `CCCC[C@@H](C=O)NC(=O)[C@H](CC(C)C)NC(=O)OCc1ccccc1` [calpeptin], which effect [1] is on record?
A: Its effect is “↑ Rho-kinase”.

Q: With `N#C/C(=C\c1cc(O)c(O)c(O)c1)C(=O)NCCCNC(=O)/C(C#N)=C/c1cc(O)c(O)c(O)c1` [Bis-T-23] as the compound, how does the effect [1] read?
A: Its effect is “↑ actin polymerization”.

Q: Which results are given for VEGF?
A: increase in ECs expressing CD31 and VE-cadherin ([4]; VEGF added during differentiation, immunofluorescence): approximately 10 fold; MCAM+ cells, share of all cells [4, 10]: 5%; MCAM+ cells, share of cells within the six kidney clusters [4, 10]: 9.5%

Q: Which “doses that did not produce cysts” value ([5]; PKD or control organoids, adherent) does the source give for `Nc1ncnc2c1nc(Br)n2[C@@H]1O[C@@H]2COP(=O)(O)O[C@H]2[C@H]1O` [8-Br-cAMP] here?
A: The value was under 1 mM.

Q: What about the “swelling of adherent organoids into cyst-like structures” value ([5]; adherent cultures, added on day 21 of differentiation) of the same compound?
A: Its value is “induced swelling, although the effect was much less pronounced”.

Q: Which effect [1] does the source give for `O=S(=O)(NCCNC/C=C/c1ccc(Br)cc1)c1cccc2cnccc12` [H-89] here?
A: The effect was “↓ PKA”.

Q: For `CCCCC[C@H](O)/C=C/[C@@H]1[C@@H](C/C=C\CCCC(=O)O)[C@H]2CO[C@@H]1C2` [U46619], which effect [1] is on record?
A: The effect was “↑ Rho-kinase”.

Q: For `COC(=O)N1CCN(Cc2cccc(NC(=O)Nc3ccc(C)nc3)c2F)CC1` [omecamtiv mercabil], which effect [1] is on record?
A: Its effect is “↑ cardiac myosin S1”.

Q: And the “effect on PKD organoid cysts” value [2]?
A: Its value is “the same effect is not seem; also recorded: do not affect PKD cysts”.

Q: And the “effect on cyst growth in PKD1−/− organoids” value ([2]; 20 μM, highest dose tried (FIG. 22))?
A: Its value is “ineffective at the highest dose that was tried”.

Q: For `Cc1ccccc1C(=O)Nc1ccc(C(=O)N2CCCC(O)c3cc(Cl)ccc32)c(C)c1` (stereo not shown) [Tolvaptan], which “effect on PKD cysts (shrinking / prevention)” value ([6]; PKD patients) is on record?
A: The value was “does not shrink PKD cysts or prevent them from forming”.

Q: And the “improve glomerular filtration rate (GFR)” value ([6]; PKD patients)?
A: Its value is about 1.5 ml/min/yr.

Q: What about the side effects ([6]; PKD patients) of the same compound?
A: Its side effects is “can damage the liver; also recorded: frequent thirst and occasional severe hepatotoxicity”.

Q: What about the “slow the growth of total kidney volume (TKV)” value ([6]; PKD patients) of the same compound?
A: Its value is about 3 %/yr.

Q: What about the “effect on PKD, cyst growth” value ([6]; patients with severe disease) of the same compound?
A: Its value is 3 % year.

Q: What does the source list for `Cc1ccc2c(c1)C(=O)C1(O)CCN(c3ccccc3)C1=N2` (stereo not shown) [blebbistatin]?
A: increase in rate of cystogenesis [7]: 10%; change in cyst formation [8]: significant increase in cyst formation; diameter and number of cysts ([9]; 7 days of treatment, suspension): Both the diameter and number of cysts were increased; increase in rate of cystogenesis ([9]; PKD organoids, suspension, 3 days after treatment): 40%; damage to organoids ([9]; at this concentration and time frame): no damage to organoids was observed; time after which PKD organoids formed cysts ([9]; suspension culture, blebbistatin): 24 h; cyst size after removal of blebbistatin ([9]; washout after 7 days of treatment): cyst size declined

Q: For `C[C@@H](O)[C@@H]1NC(=O)[C@H](CCCCN)NC(=O)[C@@H](Cc2c[nH]c3ccccc23)NC(=O)[C@H](Cc2ccccc2)NC(=O)[C@@H](NC(=O)[C@H](N)Cc2ccccc2)CSSC[C@@H](C(=O)N[C@H](CO)[C@@H](C)O)NC1=O` [octreotide], which “effect on PKD organoid cysts” value [2] is on record?
A: Its value is “the same effect is not seem; also recorded: do not affect PKD cysts”.
